Laboratory results published in patent US20110217324A1, “INHIBITORS OF ANTIGEN PRESENTATION BY MHC CLASS II MOLECULES AND METHODS OF USE THEREOF” (priority 2007, published 2011).
pIC50: −log10 of the molar value. Square brackets hold non-standard residues; d marks the D form. Peptide text beside a SMILES is read from it. Tic = O=C(O)[C@@H]1Cc2ccccc2CN1; Chg = N[C@H](C(=O)O)C1CCCCC1; Tle = CC(C)(C)[C@H](N)C(=O)O

Key:
DRB1*1501 = DRB1*1501 (Homo sapiens, UniProt P01903+P01911); conditions: DR2 haplotype; cited from earlier work
DRB5*0101 = DRB5*0101 (Homo sapiens, UniProt P01903+Q30154); conditions: DR2 haplotype; cited from earlier work
DR molecules = conditions: cited from earlier work
T cell proliferation = conditions: cited from earlier work
[1] = system: animal models of autoimmune disease; conditions: in vivo; cited from earlier work
[2] = target: T1, MHC DR2 (DRB1*1501/DRA*0101) (Homo sapiens, UniProt P01903+P01911); test: HLA II Binding Assay (competition with biotinylated reference peptide); conditions: purified HLA-DR, biotinylated reference compound for DRB1*1501, 37° C. 24 h to 72 h; read-out: Inhibition of peptide binding IC50 (against MHC DR2 (DRB1*1501/DRA*0101))
T1 construct: endogenous in cells; host or cells: EBV homozygous (B lymphoblastoid) cell lines
Procedure: EBV homozygous cell lines are used as sources of human HLA class II molecules. […] The supernatant from lysed cells after centrifugation (100,000 g for 1 h) is applied to Sepharose 4B and protein A-Sepharose 4B columns and then to the specific antibody column. […] Fractions are immediately neutralized to pH 7 with 2 mM Tris-HCl (pH 6.8) and extensively dialyzed against 1 mM n-dodecyl β-D-maltoside, 150 mM NaCl, 10 mM phosphate (pH 7) buffer.
Samples (100 μl per well) are incubated in 96-wells polypropylene plates at 37° C. for 24 h to 72 h. After neutralization with 50 μl of 450 mM Tris HCl pH 7.5, 0.003% thimerosal, 0.3% BSA, 1 mM n-dodecyl β-D-maltoside buffer, samples are applied to 96-well maxisorp ELISA plates previously coated with 10 μg/ml L243 Mab and saturated with 100 mM Tris HCl pH=7.5, 0.3% BSA, and 0.003% thimerosal buffer. Samples are allowed to bind to the antibody-coated plates for 2 h at room temperature. Bound biotinylated compound is detected by incubating streptavidin-alkaline phosphatase conjugate, and after washings, by the addition of 4-methylumbelliferyl phosphate substrate. […] Maximal binding is determined by incubating the biotinylated peptide with the MHC class II molecule in the absence of competitor. Binding specificity is assessed by adding an excess of non-biotinylated peptide.

What does the source list for “MBP (84-102): immunodominant myelin basic protein (84-102) peptide (DPGSRPHLIRLFSRDAPGR; Myelin basic protein; UniProt P02686 84-102, looked up, fragment)”?
binding affinity to DRB1*1501 molecules (DRB1*1501): bind with high affinity; binding affinity to DRB5*0101 molecules (DRB5*0101): bind with high affinity

For a(Cha)AAAKTAAAAa-NH2, which “binding to DR molecules” value (DR molecules) is on record?
The value was “binds DR molecules”.

And the “suppression of T cell proliferation in response to protein antigens” value (T cell proliferation)?
Its value is “did not supress T cell proliferation”.

And the “activity in animal models of autoimmune disease” value [1]?
Its value is “did not show activity”.

With `CNC(=O)[C@H](Cc1ccccc1)NC(=O)[C@@H]1Cc2ccccc2CN1C(=O)[C@H](CCCNC(=N)N)NC(=O)[C@@H](NC(=O)[C@@H](NC(C)=O)C(C)C)C1CCCCC1` [AcV(Chg)R(Tic)F-CONHMe] (Ac-V[Chg]R[Tic]F-NHMe) as the molecule, how does the pIC50 [2] read?
Its pIC50 is 7.00 to 8.00.

With `CC(=O)N[C@H](C(=O)N[C@H](C(=O)N[C@@H](CCCNC(=N)N)C(=O)N1Cc2ccccc2C[C@H]1C(=O)N[C@@H](Cc1ccccc1)C(N)=O)C1CCCCC1)C(C)(C)C` [Ac(t-BuG)(Chg)R(Tic)F] (Ac-[Tle][Chg]R[Tic]F-NH2) as the molecule, how does the pIC50 [2] read?
Its pIC50 is 8.00 to 9.00.
